Experimental data: article PMC8348142, “Antimicrobial Peptide Modifications against Clinically Isolated Antibiotic-Resistant Salmonella” (Molecules, 2021)
≈ marks a conversion by molar mass, not a printed value. Marks after values point to notes of the source that are not given here. Square brackets hold non-standard residues; d marks the D form. Ends that are not written are not given here. Peptide text beside a SMILES is read from it.

Tests used:
Type in all cases: cell-based
[1] = test system: clinical Salmonella isolates; test: MIC, broth microdilution; details: for MIC: MHB, 5 × 10^5 CFU/mL, 37 °C, 18 h, duplicate
Protocol: (§1) All 12 isolates of Salmonella used in this study were clinical isolates and anonymous left-overs from laboratory diagnoses. They were maintained in a 20% glycerol (Sigma-Aldrich) stock at −80 °C and further cultured on Mueller-Hinton agar (MHA, Oxoid, Hampshire, UK) at 37 °C for 18 h to obtain single colonies for antimicrobial assays. This study was approved by the Ethics Committee of the Faculty of Tropical Medicine (Mahidol University, Bangkok, Thailand; MUTM-EXMPT 2017-007).
MIC was determined using the broth microdilution method described by Hancock with some modifications. Briefly, bacterial colonies grown from the MHA were prepared in MHB (Oxoid) as a 0.5 McFarland suspension (which is equal to 1 × 10^8 CFU/mL), and was further 200-fold diluted by the MHB (5 × 10^5 CFU/mL). The bacterial suspension (50 µL) was mixed with 2-fold serial dilutions of peptide (5.5 µL) achieving final concentrations of 256 to 1 µM using a round-bottom polypropylene (PP) 96-well plate (Greiner Bio-One). The plate was incubated at 37 °C for 18 h including incubating peptide free-bacteria as positive growth control, and MHB as negative growth control. After the incubation, the lowest concentration with no visible growth was defined as a MIC value. The assay was performed in a duplicate manner.

sheep red blood cells = test: Hemolytic activity assay; details: for HC50 (hemolytic concentration 50): concentration inducing 50% hemolysis of sRBCs, nonlinear regression, unit (µM); for percent hemolysis: 2% sRBCs in PBS, 37 °C, 1 h, OD540, triplicate mean; for concentration required for the initiation of hemolysis: sRBCs, 60 min, 256–1 µM tested
Protocol: The peptide toxicity to the mammalian system was screened based on the hemolytic test by measuring the hemoglobin released from ruptured red blood cells (RBCs). In this study, sheep RBCs (sRBCs) were employed. They were thrice washed and prepared as a suspension in phosphate-buffered saline (PBS, Oxoid). A suspension of 2% sRBCs was incubated with 2-fold serial dilutions of peptide (final concentrations; 256 to 1 µM in a total volume of 200 µL) at 37 °C for 1 h. The solutions of 0.1% (final concentration) Triton X-100 (Sigma-Aldrich) and PBS containing the peptide solvent were used instead of the peptides as the controls of hemolysis at 100% and 0%, respectively. Thereafter, the post-incubated suspensions were centrifuged (1000× g, 3 min) to pelletize residual sRBCs. The supernatants were then transferred into a flat-bottom PS 96-well plate and were measured the absorbance at 540 nm (OD540) by a microplate reader. The test was conducted in triplicate and the mean OD540 was used to calculate the hemolysis (%) as; ((OD540 (peptide) − OD540 (PBS + peptide solvent))/(OD540 (0.1% Triton X-100) − OD540 (PBS + peptide solvent))) × 100. The hemolytic concentration 50 (HC50), a concentration inducing 50% hemolysis, was determined.
The GraphPad Prism version 7.00 (GraphPad Software, La Jolla, CA, USA) was applied for all statistical analyses and data visualizations. Replicate quantitative results were calculated and shown as mean ± SD, unless otherwise specified. The HC50 values were determined using nonlinear regression analysis. The paired t-test and repeated measures one-way ANOVA with Tukey’s multiple comparison test were applied to compare between 2 groups and among 3 or more groups, respectively. The comparisons were considered as a statistically significant difference when a p-value < 0.05.

[2] = test system: clinical Salmonella isolates; test: MBC, drop plate method, and MBC/MIC mode of action; details: for GM of MBC: geometric mean over 12 clinical Salmonella isolates; for MBC: drop plate on MHA from MIC plate, 37 °C, 18 h, thrice
Protocol: as §1
The plate derived from the MIC assay was immediately tested for the MBC using a drop plate method. A volume of 10 µL of the culture from individual wells at MIC, 2MIC, and 4MIC was dropped on MHA plates. […] The experiment was thrice performed.
In order to determine whether the peptides have bacteriostatic or bactericidal activity, a ratio of MBC to MIC (MBC/MIC) was applied. The ratio >4 was indicative of bacteriostatic peptide, and ≤4 was inferred as bactericidal peptide.

[3] = isolate 5 (Enteritidis, blood; resistant AMP, SXT, KZ)
[4] = isolate 7 (Typhimurium, blood; resistant AMP, CN, TE, NA, SXT)
[5] = isolate 55 (Typhimurium, blood; resistant AMP, SXT, C, TE)
[6] = isolate 61 (Enteritidis, blood; resistant AMP, TE, NA, SXT)
[7] = isolate 69 (Typhimurium, stool; resistant AMP)
[8] = isolate 76 (Enteritidis, CSF; resistant NA)
[9] = isolate 78 (Enteritidis, blood; resistant TE, CIP, NA, SXT)
[10] = isolate 107 (Typhimurium, stool; susceptible)
[11] = isolate 11 (I 1,4:i:-, blood; resistant AMP, TE, NA, SXT, C)
[12] = isolate 18 (Stanley, urine; resistant TE, SXT, C)
[13] = isolate 26 (Typhimurium, urine; resistant TZP, TE, NA)
[14] = isolate 27 (Typhimurium, stool; resistant AMP, TE, NA, SXT, CIP)

Compound: FPSFLVGR [Pug-4, reference compound]
- MIC [1, 3]: > 256 µM
- MIC [1, 4]: > 256 µM
- MIC [1, 5]: > 256 µM
- MIC [1, 6]: > 256 µM
- MIC [1, 7]: > 256 µM
- MIC [1, 8]: > 256 µM
- MIC [1, 9]: > 256 µM
- MIC [1, 10]: > 256 µM

Compound: CC[C@@H](C)[C@@H](NC(=O)[C@H](N)Cc1ccccc1)C(=O)N[C@H](CCCNC(=N)N)C(=O)N[C@H](CCCNC(=N)N)C(=O)N[C@@H](C(=O)N[C@H](C)C(=O)N[C@H](CCCNC(=N)N)C(=O)N[C@H](CC(C)C)C(=O)N[C@H](CC(C)C)C(=O)N[C@H](CCCNC(=N)N)C(=O)N[C@H](CCCNC(=N)N)C(=O)N[C@@H](C(=O)N[C@H](Cc1ccccc1)C(N)=O)[C@H](C)CC)[C@H](C)CC [dKn2-5R-NH2] (H-[dF][dI][dR][dR][dI][dA][dR][dL][dL][dR][dR][dI][dF]-NH2)
- MIC [1, 3]: 8 µM (≈ 13.8 µg/mL)
- MIC [1, 4]: 8 µM (≈ 13.8 µg/mL)
- MIC [1, 11]: 8 µM (≈ 13.8 µg/mL)
- MIC [1, 12]: 8 µM (≈ 13.8 µg/mL)
- MIC [1, 13]: 8 µM (≈ 13.8 µg/mL)
- MIC [1, 14]: 4 µM (≈ 6.92 µg/mL)
- MIC [1, 5]: 4 µM (≈ 6.92 µg/mL)
- MIC [1, 6]: 4 µM (≈ 6.92 µg/mL)
- MIC [1, 7]: 4 µM (≈ 6.92 µg/mL)
- MIC [1, 8]: 8 µM (≈ 13.8 µg/mL)
- MIC [1, 9]: 8 µM (≈ 13.8 µg/mL)
- MIC [1, 10]: 4 µM (≈ 6.92 µg/mL)
- HC50 (hemolytic concentration 50) (sheep red blood cells): 199.20 µM
- percent hemolysis (sheep red blood cells; peptide 1 µM): 0%
- percent hemolysis (sheep red blood cells; peptide 2 µM): 0%
- percent hemolysis (sheep red blood cells; peptide 4 µM): 0.4 * %
- percent hemolysis (sheep red blood cells; peptide 8 µM): 0.5 * %
- percent hemolysis (sheep red blood cells; peptide 16 µM): 0.9%
- percent hemolysis (sheep red blood cells; peptide 32 µM): 2.5%
- percent hemolysis (sheep red blood cells; peptide 64 µM): 8.7%
- percent hemolysis (sheep red blood cells; peptide 128 µM): 23.6%
- percent hemolysis (sheep red blood cells; peptide 256 µM): 65.6%
- concentration required for the initiation of hemolysis (sheep red blood cells): 4 µM
- GM of MBC [2]: 5.99 µM
- MBC ([2]; isolate 5 (Enteritidis)): 8 µM (≈ 13.8 µg/mL)
- MBC ([2]; isolate 7 (Typhimurium)): 8 µM (≈ 13.8 µg/mL)
- MBC ([2]; isolate 11 (I 1,4:i:-)): 8 µM (≈ 13.8 µg/mL)
- MBC ([2]; isolate 18 (Stanley)): 8 µM (≈ 13.8 µg/mL)
- MBC ([2]; isolate 26 (Typhimurium)): 8 µM (≈ 13.8 µg/mL)
- MBC ([2]; isolate 27 (Typhimurium)): 4 µM (≈ 6.92 µg/mL)
- MBC ([2]; isolate 55 (Typhimurium)): 4 µM (≈ 6.92 µg/mL)
- MBC ([2]; isolate 61 (Enteritidis)): 4 µM (≈ 6.92 µg/mL)
- MBC ([2]; isolate 69 (Typhimurium)): 4 µM (≈ 6.92 µg/mL)
- MBC ([2]; isolate 76 (Enteritidis)): 8 µM (≈ 13.8 µg/mL)
- MBC ([2]; isolate 78 (Enteritidis)): 8 µM (≈ 13.8 µg/mL)
- MBC ([2]; isolate 107 (Typhimurium)): 4 µM (≈ 6.92 µg/mL)

Compound: FIRRIARLLRRIF [Kn2-5R]
- MIC [1, 3]: 8 µM
- MIC [1, 4]: 8 µM
- MIC [1, 11]: 8 µM
- MIC [1, 12]: 8 µM
- MIC [1, 13]: 8 µM
- MIC [1, 14]: 8 µM
- MIC [1, 5]: 8 µM
- MIC [1, 6]: 8 µM
- MIC [1, 7]: 8 µM
- MIC [1, 8]: 8 µM
- MIC [1, 9]: 8 µM
- MIC [1, 10]: 8 µM
- HC50 (hemolytic concentration 50) (sheep red blood cells): 886.50 µM
- percent hemolysis (sheep red blood cells; peptide 1 µM): 0%
- percent hemolysis (sheep red blood cells; peptide 2 µM): 0%
- percent hemolysis (sheep red blood cells; peptide 4 µM): 0.4%
- percent hemolysis (sheep red blood cells; peptide 8 µM): 0.7 * %
- percent hemolysis (sheep red blood cells; peptide 16 µM): 1.4%
- percent hemolysis (sheep red blood cells; peptide 32 µM): 1.5%
- percent hemolysis (sheep red blood cells; peptide 64 µM): 1.8%
- percent hemolysis (sheep red blood cells; peptide 128 µM): 2.4%
- percent hemolysis (sheep red blood cells; peptide 256 µM): 10.6%
- concentration required for the initiation of hemolysis (sheep red blood cells): 4 µM
- GM of MBC [2]: 8 µM
- MBC ([2]; isolate 5 (Enteritidis)): 8 µM
- MBC ([2]; isolate 7 (Typhimurium)): 8 µM
- MBC ([2]; isolate 11 (I 1,4:i:-)): 8 µM
- MBC ([2]; isolate 18 (Stanley)): 8 µM
- MBC ([2]; isolate 26 (Typhimurium)): 8 µM
- MBC ([2]; isolate 27 (Typhimurium)): 8 µM
- MBC ([2]; isolate 55 (Typhimurium)): 8 µM
- MBC ([2]; isolate 61 (Enteritidis)): 8 µM
- MBC ([2]; isolate 69 (Typhimurium)): 8 µM
- MBC ([2]; isolate 76 (Enteritidis)): 8 µM
- MBC ([2]; isolate 78 (Enteritidis)): 8 µM
- MBC ([2]; isolate 107 (Typhimurium)): 8 µM

Compound: KLKLLLLLKL [KLK1, reference compound]
- MIC [1, 3]: > 256 µM
- MIC [1, 4]: > 256 µM
- MIC [1, 5]: > 256 µM
- MIC [1, 6]: > 256 µM
- MIC [1, 7]: > 256 µM
- MIC [1, 8]: > 256 µM
- MIC [1, 9]: > 256 µM
- MIC [1, 10]: > 256 µM

Compound: FIGAIARLLSKIF [BmKn-2, reference compound]
- MIC values, range over isolates ([1]; eight clinical Salmonella isolates, peptide 256–1 µM tested): 64 to 256 µM
- MIC [1, 3]: 128 µM
- MIC [1, 4]: 128 µM
- MIC [1, 5]: 256 µM
- MIC [1, 6]: 256 µM
- MIC [1, 7]: 256 µM
- MIC [1, 8]: 64 µM
- MIC [1, 9]: 128 µM
- MIC [1, 10]: 64 µM

Compound: KLKLLLLLKLK-NH2 [KLK, reference compound]
- MIC [1, 3]: > 256 µM
- MIC [1, 4]: > 256 µM
- MIC [1, 5]: > 256 µM
- MIC [1, 6]: > 256 µM
- MIC [1, 7]: > 256 µM
- MIC [1, 8]: > 256 µM
- MIC [1, 9]: > 256 µM
- MIC [1, 10]: > 256 µM

Compound: FIGAIARLLSK [BmKn-22, reference compound]
- MIC [1, 3]: > 256 µM
- MIC [1, 4]: > 256 µM
- MIC [1, 5]: > 256 µM
- MIC [1, 6]: > 256 µM
- MIC [1, 7]: > 256 µM
- MIC [1, 8]: > 256 µM
- MIC [1, 9]: > 256 µM
- MIC [1, 10]: > 256 µM

Compound: LLKLFFPFLETGE [Pug-1, reference compound]
- MIC [1, 3]: > 256 µM
- MIC [1, 4]: > 256 µM
- MIC [1, 5]: > 256 µM
- MIC [1, 6]: > 256 µM
- MIC [1, 7]: > 256 µM
- MIC [1, 8]: > 256 µM
- MIC [1, 9]: > 256 µM
- MIC [1, 10]: > 256 µM
